Key:
AP-1 response element = assay: Coll73-LUC collagenase reporter gene assay in HeLa cells transfected with ER and GR; assay type: cell-based, human; conditions: for AP-1 activation at dose used: TNF-α 10 ng/ml, data not shown
Excerpt: Coll73-LUC and Coll60-CAT have been previously described (Webb et al. (1995) Mol. Endo., 9: 443-456; Lopez et al. (1993) Mol. Cell Biol., 13: 3042-3049). Coll73-LUC consists of −73 to +63 base pairs of the collagenase promoter upstream of the Luciferase reporter gene. Coll517-CAT and Coll517mAP-1-CAT each contain −517 to +63 of the collagenase promoter (Webb et al. (1995) Mol. Endo., 9: 443-456).
Coll517mAP-1-CAT contains three point mutations in the consensus AP-1 response element (TGAGTCA mutated to GTACTCA). ColALuc contains the collagenase AP-1 response element upstream of the minimal drosophila alcohol dehydrogenase promoter (Starr et al., (1996) Genes & Dev., 10: 1271-1283). The ER expression vectors have been previously described: PHE0 (Green et al. (1986) Nature, 320: 134-139), PHEG0 (Tora et al. (1989) EMBO J. 8: 1981-1986), HE11 (Kumar et al. (1986) EMBO J., 5: 2231-2236), and HE15 (Kumar et al. (1987) Cell, 51: 941-951). PHE0 contains a point mutation (Gly400Val). PHEG0 is the wild type ER. PHE0 has reduced affinity for estrogens which allows for studies in cell culture without inadvertent activation. The protein coding regions of the ER plasmids were cloned into the multiple cloning site of the pSG5 expression vector. pRSVhGR (McEwan et al. (1993) Mol. Cell. Biol., 13: 399-407) consists of a cDNA encoding the human GR coding region inserted into an expression vector driven by the Rous sarcoma virus promoter. The PR-A (PhPR-60) and PR-B (hPR65) plasmids were derived from T47D cDNA and genomic DNA (Law et al (1987) Proc. Natl. Acad. Sci., USA, 84: 2877-2881; Wei et al. (1988) Mol. Endo., 2: 62-72) and cloned into an expression vector derived from pLEN (Kushner et al. (1990) Mol. Endocrinol. 4: 1465-1473). The human c-Jun (Turner et al. (1989) Science, 243: 1689-1694)) and rat c-Fos (Cohen et al. (1989) Genes & Dev., 3: 173-184)), have been previously described. The beta-actin-hCG construct has been previously described (Lopez et al. (1993) Mol. Cell. Biol., 13: 3042-3049). The pJ3-LacZ plasmid is pBR322-based and contains an SV40 promoter which activates LacZ.
All cells were maintained in DME medium without phenol red. […]
(§1) Cells were transfected by electroporation as previously described (Webb et al. (1995) Mol. Endo., 9: 443-456). […] The efficiency of transfection was monitored by co-transfection with either a (hCG reporter driven by an actin promoter (Lopez et al. (1993) Mol. Cell. Biol., 13: 3042-3049) or by co-transfection with pJ3LACZ. CAT or luciferase activity was then corrected by dividing by hCG levels or β-galactosidase activity. Five micrograms of collagenase reporter plasmid, and 1 μg of GR expression vector were used in all experiments unless otherwise indicated. […]

PR-A [1] = assay: ColALuc reporter assay in CV-1 cells transfected with ER, PR-A and c-Jun; assay type: cell-based, monkey
Procedure: (§2) (FIG. 8A) HeLa cells were transfected with ColALuc (5 μg), ER (1 μg), PR-A or PR-B (1 μg), and c-Jun (3 μg). Data are from four separate transfections from three experiments for PR-A and from two transfections from two experiments for PR-B. Columns represent the average fold induction. (FIG. 8B) CV-1 cells were transfected with ColALuc (5 μg), ER (HE0, 0.5 μg), PR-A (1 μg) and c-Jun (3 μg). Data is from one experiment. Columns represent the average of two treatment points. Similar experiments have been repeated 3 times or less. (FIGS. 8A and 8B) Cells were treated with steroids immediately after transfection and harvested 40 hrs later. Error bars represent standard deviation.
(§3) Coll517mAP-1-CAT contains three point mutations in the consensus AP-1 response element (TGAGTCA mutated to GTACTCA). […]
as §1

PR-A [2] = conditions: HeLa, 10^−7 M
Procedure: (FIG. 8A) HeLa cells were transfected with ColALuc (5 μg), ER (1 μg), PR-A or PR-B (1 μg), and c-Jun (3 μg). Data are from four separate transfections from three experiments for PR-A and from two transfections from two experiments for PR-B. Columns represent the average fold induction. […] Similar experiments have been repeated 3 times or less. (FIGS. 8A and 8B) Cells were treated with steroids immediately after transfection and harvested 40 hrs later. Error bars represent standard deviation.
All cells were maintained in DME medium without phenol red. The medium was supplemented by serum (Sigma) which was tested for low estrogenic activity prior to use. […] In these experiments cells were treated with media containing charcoal-treated serum the night prior to transfection.

PR-B = assay: ColALuc reporter assay in HeLa cells transfected with ER, PR-B and c-Jun; assay type: cell-based, human
Procedure: as §2, §3, §1

CC/C(=C(\c1ccccc1)c1ccc(OCCN(C)C)cc1)c1ccccc1 [tamoxifen]
tamoxifen effect on transcription at Coll73 (AP-1 response element; tamoxifen 5×10^−6 M, HE0, GR 1 μg): activation

TNF-α
AP-1 activation at dose used (AP-1 response element; PMA 10^−7 M): maximal AP-1 activation

CCCCCCCCCCCCCC(=O)O[C@@H]1[C@@H](C)[C@@]2(O)[C@@H](C=C(CO)C[C@]3(O)C(=O)C(C)=C[C@@H]23)[C@@H]2C(C)(C)[C@]12OC(C)=O [PMA]
AP-1 activation at dose used (AP-1 response element; PMA 10^−7 M): maximal AP-1 activation | transcriptional activity in the absence of steroids (AP-1 response element; PMA 10^−7 M, ER 5 μg, GR 1 μg): ten fold stimulation

CCC(=O)[C@@]1(C)CC[C@H]2[C@@H]3CCC4=CC(=O)CCC4=C3CC[C@@]21C [R5020]
progestin inhibition of estradiol with increased amounts of c-Jun (PR-A [1]; CV-1, PR-A, increasing c-Jun): maintained | effect on the estradiol response (PR-A [1]; CV-1, transfected PR-A): inhibited the estradiol response | activity of AP-1 site, single steroid (PR-A [2]): inhibited the basal activity | activity of AP-1 site, single steroid (PR-B; 10^−7 M): inhibited the basal activity | progestin inhibition on treatment with both steroids (PR-B; estradiol + progestin): loss of RU5020 inhibition

Source: patent publication US20020098477A1, “METHODS FOR SCREENING NUCLEAR TRANSCRIPTION FACTORS FOR THE ABILITY TO MODULATE AN ESTROGEN RESPONSE” (priority 1997, published 2002)
